In US9902730B2, “Compounds and compositions as toll-like receptor 7 agonists” (NOVARTIS AG, priority 2014, dated 2018):

The compounds below were run against T1, human TLR7 (Homo sapiens, UniProt Q9NYK1) (assay: Reporter gene assay (HEK293 cells with human TLR7 and NF-kB-driven luciferase reporter)). Conditions: HEK 293 cells stably transfected with human TLR7 and NF-kB-driven luciferase reporter; 7 hours incubation; EC50 relative to activity of resiquimod set to 100%.
T1 construct: expressed in transfected cells
T1 sequence (Q9NYK1 27-1049): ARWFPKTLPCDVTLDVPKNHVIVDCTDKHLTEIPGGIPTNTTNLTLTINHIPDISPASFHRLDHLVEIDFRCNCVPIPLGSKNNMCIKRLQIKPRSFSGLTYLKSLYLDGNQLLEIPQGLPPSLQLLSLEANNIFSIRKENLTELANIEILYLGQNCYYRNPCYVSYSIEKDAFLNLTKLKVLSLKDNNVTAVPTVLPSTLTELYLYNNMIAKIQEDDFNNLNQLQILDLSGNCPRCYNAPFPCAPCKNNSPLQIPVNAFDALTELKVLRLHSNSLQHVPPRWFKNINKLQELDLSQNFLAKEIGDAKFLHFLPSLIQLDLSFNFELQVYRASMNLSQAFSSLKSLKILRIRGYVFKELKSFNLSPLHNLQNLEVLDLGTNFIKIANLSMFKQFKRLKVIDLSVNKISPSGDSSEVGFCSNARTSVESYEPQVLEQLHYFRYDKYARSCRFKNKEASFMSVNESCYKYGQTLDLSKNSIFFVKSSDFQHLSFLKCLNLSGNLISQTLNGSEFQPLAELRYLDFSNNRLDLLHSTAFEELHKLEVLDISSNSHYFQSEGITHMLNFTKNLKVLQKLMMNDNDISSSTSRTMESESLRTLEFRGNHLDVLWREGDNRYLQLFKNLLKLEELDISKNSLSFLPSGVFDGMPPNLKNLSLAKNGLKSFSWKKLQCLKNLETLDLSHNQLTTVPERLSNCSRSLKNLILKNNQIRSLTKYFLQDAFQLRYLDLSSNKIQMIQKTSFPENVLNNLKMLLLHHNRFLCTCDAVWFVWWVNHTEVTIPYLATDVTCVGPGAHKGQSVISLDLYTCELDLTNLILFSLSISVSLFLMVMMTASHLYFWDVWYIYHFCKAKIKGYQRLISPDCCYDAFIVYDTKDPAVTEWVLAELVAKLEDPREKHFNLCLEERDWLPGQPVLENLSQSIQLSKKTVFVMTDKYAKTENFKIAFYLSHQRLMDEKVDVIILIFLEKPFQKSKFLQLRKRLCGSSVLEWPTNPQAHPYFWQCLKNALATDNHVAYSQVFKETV
Format: cell-based
Description: Human embryonic kidney 293 (HEK 293) cells were stably transfected with human TLR7 and an NF-kB-driven luciferase reporter vector (pNifty-Luciferase). As a control assay, normal Hek293 transfected with pNifty-Luc were used. Cells were cultured in DMEM supplemented with 2 mM L-glutamine, 10% heart inactivated FBS, 1% penicillin and streptomycin, 2 μg/ml puromycin (InvivoGen #ant-pr-5) and 5 μg/ml of blasticidin (Invitrogen #46-1120). Bright-Glo™ Luciferase assay buffer and substrate were supplied by Promega #E263B and #E264B (assay substrate and buffer respectively). 384 well clear-bottom plates were supplied by Greiner bio-one (#789163-G) and were custom bar-coded plates.
Cells were plated at 25,000 cells/well in 384-well plates in a final volume of 50 μl of media. Cells were allowed to adhere to the plates after overnight (18 hours) culture at 37° C. and 5% CO2. Serially diluted experimental and positive control compounds were then dispensed to each well and incubated for 7 hours at 37° C. and 5% CO2. Cells stimulated with DMSO alone also serve as negative controls. After the incubation, 30 μl of the pre-mix assay buffer and substrate buffer were added to each well according to manufacturer's instructions. The luminescence signal was read on a CLIPR machine with an integration time of 20 seconds per plate.
Dose response curves are generated for each compound and EC50 values were determined as the concentration that gives 50% of the maximal signal.

Row | SMILES | EC50 [µM]
1 | CCCCCNc1nc(N)nc2ccn(Cc3cc(OCc4nnn[nH]4)ccc3OC)c12 [Example 1, 5-(5-((1H-tetrazol-5-yl)methoxy)-2-methoxybenzyl)-N4-pentyl-5H-pyrrolo[3,2-d]pyrimidine-2,4-diamine] | 0.1
2 | CCCCCNc1nc(N)nc2ccn(Cc3cc(Cc4nnn[nH]4)ccc3OC)c12 [Example 2, 5-(5-((1H-tetrazol-5-yl)methyl)-2-methoxybenzyl)-N4-pentyl-5H-pyrrolo[3,2-d]pyrimidine-2,4-diamine] | 0.05
3 | CCCCCNc1nc(N)nc2ccn(Cc3cc(Cc4nnn(CC(=O)O)n4)ccc3OC)c12 [Example 3, 2-(5-(3-((2-amino-4-(pentylamino)-5H-pyrrolo[3,2-d]pyrimidin-5-yl)methyl)-4-methoxybenzyl)-2H-tetrazol-2-yl)acetic acid] | 0.2
4 | CCCCCNc1nc(N)nc2ccn(Cc3cc(CC(=O)O)ccc3OC)c12 [Example 4, 2-(3-((2-amino-4-(pentylamino)-5H-pyrrolo[3,2-d]pyrimidin-5-yl)methyl)-4-methoxyphenyl)acetic acid] | 0.05
5 | CCCC[C@@H](CO)Nc1nc(N)nc2ccn(Cc3cc(CC(=O)O)ccc3OC)c12 [Example 5, (S)-2-(3-((2-amino-4-((1-hydroxyhexan-2-yl)amino)-5H-pyrrolo[3,2-d]pyrimidin-5-yl)methyl)-4-methoxyphenyl)acetic acid] | 0.4
6 | CCCC[C@@H](CO)Nc1nc(N)nc2ccn(Cc3cc(Cc4nnn[nH]4)ccc3OC)c12 [Example 6, (S)-2-((5-(5-((1H-tetrazol-5-yl)methyl)-2-methoxybenzyl)-2-amino-5H-pyrrolo[3,2-d]pyrimidin-4-yl)amino)hexan-1-ol] | 0.1
7 | CCC[C@@H](CO)Nc1nc(N)nc2ccn(Cc3cc(Cc4nnn[nH]4)ccc3OC)c12 [Example 7, (S)-2-((5-(5-((1H-tetrazol-5-yl)methyl)-2-methoxybenzyl)-2-amino-5H-pyrrolo[3,2-d]pyrimidin-4-yl)amino)pentan-1-ol] | 0.8
8 | CCCCCNc1nc(N)nc2ccn(Cc3cc(-c4nnn[nH]4)ccc3OC)c12 [Example 8, 5-(2-methoxy-5-(1H-tetrazol-5-yl)benzyl)-N4-pentyl-5H-pyrrolo[3,2-d]pyrimidine-2,4-diamine] | 0.3
9 | CCCCCCNc1nc(N)nc2ccn(Cc3cc(-c4nnn[nH]4)ccc3OC)c12 [Example 9, N4-hexyl-5-(2-methoxy-5-(1H-tetrazol-5-yl)benzyl)-5H-pyrrolo[3,2-d]pyrimidine-2,4-diamine] | 0.8
10 | CCCC[C@@H](CO)Nc1nc(N)nc2ccn(Cc3cc(-c4nnn[nH]4)ccc3OC)c12 [Example 10, (S)-2-((2-amino-5-(2-methoxy-5-(1H-tetrazol-5-yl)benzyl)-5H-pyrrolo[3,2-d]pyrimidin-4-yl)amino)hexan-1-ol] | 0.2
11 | CCCCCNc1nc(N)nc2ccn(Cc3cc(C(C)(C)c4nnn[nH]4)ccc3OC)c12 [Example 11, 5-(5-(2-(1H-tetrazol-5-yl)propan-2-yl)-2-methoxybenzyl)-N4-pentyl-5H-pyrrolo[3,2-d]pyrimidine-2,4-diamine] | 0.1
12 | CCCC[C@@H](CO)Nc1nc(N)nc2ccn(Cc3cc(C(C)(C)c4nnn[nH]4)ccc3OC)c12 [Example 12, (S)-2-((5-(5-(2-(1H-tetrazol-5-yl)propan-2-yl)-2-methoxybenzyl)-2-amino-5H-pyrrolo[3,2-d]pyrimidin-4-yl)amino)hexan-1-ol] | 0.2
13 | CCCCCNc1nc(N)nc2ccn(Cc3cc(C(=O)O)ccc3OC)c12 [Example 13, 3-((2-amino-4-(pentylamino)-5H-pyrrolo[3,2-d]pyrimidin-5-yl)methyl)-4-methoxybenzoic acid] | 0.1
14 | CCCCCNc1nc(N)nc2ccn(Cc3ccc(-c4nnn[nH]4)cc3OC)c12 [Example 14, 5-(2-methoxy-4-(1H-tetrazol-5-yl)benzyl)-N4-pentyl-5H-pyrrolo[3,2-d]pyrimidine-2,4-diamine] | 1.4
15 | CCCCCNc1nc(N)nc2ccn(Cc3cc(CCc4nnn[nH]4)ccc3OC)c12 [Example 15, 5-(5-(2-(1H-tetrazol-5-yl)ethyl)-2-methoxybenzyl)-N4-pentyl-5H-pyrrolo[3,2-d]pyrimidine-2,4-diamine] | 0.06
16 | CCCCCNc1nc(N)nc2ccn(Cc3cc(C(F)(F)c4nnn[nH]4)ccc3OC)c12 [Example 16, 5-(5-(difluoro(1H-tetrazol-5-yl)methyl)-2-methoxybenzyl)-N4-pentyl-5H-pyrrolo[3,2-d]pyrimidine-2,4-diamine] | 0.2
17 | CCCCCNc1nc(N)nc2ccn(Cc3cc(C(F)(F)C(=O)O)ccc3OC)c12 [Example 17, 2-(3-((2-amino-4-(pentylamino)-5H-pyrrolo[3,2-d]pyrimidin-5-yl)methyl)-4-methoxyphenyl)-2,2-difluoroacetic acid] | 0.5
18 | CCCCCNc1nc(N)nc2ccn(Cc3cc(CC[C@@H](O)C[C@@H](O)CC(=O)O)ccc3OC)c12 [Example 18, (3R,5R)-7-(3-((2-amino-4-(pentylamino)-5H-pyrrolo[3,2-d]pyrimidin-5-yl)methyl)-4-methoxyphenyl)-3,5-dihydroxyheptanoic acid] | 0.6
19 | CCCCCNc1nc(N)nc2ccn(Cc3cc(P(=O)(O)O)ccc3OC)c12 [Example 19, (3-((2-amino-4-(pentylamino)-5H-pyrrolo[3,2-d]pyrimidin-5-yl)methyl)-4-methoxyphenyl)phosphonic acid] | 0.08
20 | CCCCCNc1nc(N)nc2ccn(Cc3cc(P(=O)(O)OC)ccc3OC)c12 [Example 20, methyl hydrogen (3-((2-amino-4-(pentylamino)-5H-pyrrolo[3,2-d]pyrimidin-5-yl)methyl)-4-methoxyphenyl)phosphonate] | 0.3
21 | CCCCCNc1nc(N)nc2ccn(Cc3cc(CCC(=O)O)ccc3OC)c12 [Example 21, 3-(3-((2-amino-4-(pentylamino)-5H-pyrrolo[3,2-d]pyrimidin-5-yl)methyl)-4-methoxyphenyl)propanoic acid] | 0.4
22 | CCCCCNc1nc(N)nc2ccn(Cc3cc(/C=C/C(=O)O)ccc3OC)c12 [Example 22, (E)-3-(3-((2-amino-4-(pentylamino)-5H-pyrrolo[3,2-d]pyrimidin-5-yl)methyl)-4-methoxyphenyl)acrylic acid] | 0.7
23 | CCCC[C@@H](CO)Nc1nc(N)nc2ccn(Cc3cc(CCC(=O)O)ccc3OC)c12 [Example 23, (S)-3-(3-((2-amino-4-((1-hydroxyhexan-2-yl)amino)-5H-pyrrolo[3,2-d]pyrimidin-5-yl)methyl)-4-methoxyphenyl)propanoic acid] | 0.4
24 | CCCCCNc1nc(N)nc2ccn(Cc3cc(CN4CCC[C@@H]4C(=O)O)ccc3OC)c12 [Example 24, (R)-1-(3-((2-amino-4-(pentylamino)-5H-pyrrolo[3,2-d]pyrimidin-5-yl)methyl)-4-methoxybenzyl)pyrrolidine-2-carboxylic acid] | 0.08
25 | CCCCCNc1nc(N)nc2ccn(Cc3ccc(CN4CCC[C@H]4C(=O)O)cc3OC)c12 [Example 25, (S)-1-(4-((2-amino-4-(pentylamino)-5H-pyrrolo[3,2-d]pyrimidin-5-yl)methyl)-3-methoxybenzyl)pyrrolidine-2-carboxylic acid] | 0.008
26 | CCCCCNc1nc(N)nc2ccn(Cc3ccc(OCC(=O)O)cc3OC)c12 [Example 26, 2-(4-((2-amino-4-(pentylamino)-5H-pyrrolo[3,2-d]pyrimidin-5-yl)methyl)-3-methoxyphenoxy)acetic acid] | 0.4
